LogP and chromatographic logP data for 62 compounds are collected here from patent publication US20200031778A1, “NOVEL 5-SUBSTITUTED IMIDAZOLYLMETHYL DERIVATIVES” (Bayer CropScience Aktiengesellschaft, priority 2016, published 2020).

Structures are written as SMILES.

The nature of one data set: Log P by HPLC on reversed phase columns (EEC directive 79/831 Annex V.A8; methods [a], [b], [c]). The format is physicochemical.
Settings: not given
As for the experimental part: Measurement of Log P values was performed according to EEC directive 79/831 Annex V.A8 by HPLC (High Performance Liquid Chromatography) on reversed phase columns with the following methods: • ^[a] Log P value is determined by measurement of LC-UV, in an acidic range, with 0.1% formic acid in water and acetonitrile as eluent (linear gradient from 10% acetonitrile to 95% acetonitrile). • ^[b] Log P value is determined by measurement of LC-UV, in a neutral range, with 0.001 molar ammonium acetate solution in water and acetonitrile as eluent (linear gradient from 10% acetonitrile to 95% acetonitrile). • ^[c] Log P value is determined by measurement of LC-UV, in an acidic range, with 0.1% phosphoric acid and acetonitrile as eluent (linear gradient from 10% acetonitrile to 95% acetonitrile).
If more than one Log P value is available within the same method, all the values are given and separated by “+”.
Calibration was done with straight-chain alkan2-ones (with 3 to 16 carbon atoms) with known Log P values (measurement of Log P values using retention times with linear interpolation between successive alkanones). Lambda-max-values were determined using UV-spectra from 200 nm to 400 nm and the peak values of the chromatographic signals.
Turning to `N#Cc1cncn1CC(O)(c1cc(F)c(Cl)cc1Cl)C1(F)CC1` (centres unmarked) [I-578], the LogP was 2.59^[a].
The same measure, in the same setting: next, `N#Cc1cncn1CC(O)(c1cccc(Cl)c1F)C1(Cl)CC1` (centres unmarked) [I-553]: 2.40^[a]; `N#Cc1cncn1CC(O)(c1ccc(Oc2ccccc2)cc1)C1(Cl)CC1` (centres unmarked) [I-281]: 3.19^[a].
On the same count and under the same terms, for `C#Cc1ccc(C(O)(Cn2cncc2C#N)C2(Cl)CC2)c(F)c1` (centres unmarked) [I-659] the value was 2.42^[a]; for `N#Cc1cncn1CC(O)(c1cc(Br)c(F)cc1F)C1(F)CC1` (centres unmarked) [I-573], 2.47^[a]; for `CC(C)(C)C(O)(Cn1cncc1C#N)c1cc(F)cc(Cl)c1` (centres unmarked) [I-495], 2.88^[a].
Still for that read-out and setting: next, `CCOC(Cn1cncc1C#N)c1ccc(Oc2ccc(Cl)cc2)cc1C(F)(F)F` (centres unmarked) [I-84]: 4.54^[a]; `OC(Cn1cncc1Cl)c1ccc(Oc2ccc(Br)cc2)cc1Cl` (centres unmarked) [I-11]: 2.75^[a].
Turning to `N#Cc1cncn1CC(O)(c1ccc(Cl)c(Cl)c1F)C1(Cl)CC1` (centres unmarked) [I-630], the LogP was 2.76^[a].
Still for that read-out and setting: for `N#Cc1cncn1CC(O)(c1ccc(Cl)nc1Cl)C1(Cl)CC1` (centres unmarked) [I-597] the value was 2.12^[a]; for `CC(C)(C)C(O)(Cn1cncc1C#N)c1cc(Br)cc(Br)c1` (centres unmarked) [I-490], 3.39^[a].
Same read-out and setting: next, `CC(C)C(O)(Cn1cncc1C#N)c1ccc(C(F)(F)F)cc1Cl` (centres unmarked) [I-426]: 3.11^[a]; `N#Cc1cncn1CC(O)(c1cc(Cl)ccc1F)C1(F)CC1` (centres unmarked) [I-522]: 2.25^[a]; `CCCCC(O)(Cn1cncc1C#N)c1ccc(F)cc1` (centres unmarked) [I-228]: 2.47^[a].
Same read-out and setting: next, `N#Cc1cncn1CC(O)c1ccc(Cl)cc1Cl` (centres unmarked) [I-144]: 2.12^[a]; `N#Cc1cncn1CC(O)(c1ccc(F)c(Cl)c1)C1(F)CC1` (centres unmarked) [I-444]: 2.39^[a]; `N#Cc1cncn1CC(O)(c1ccc(F)cc1Br)C1(Cl)CC1` (centres unmarked) [I-387]: 2.48^[a].
On to `N#Cc1cncn1CC(O)(CC1CC1)C1(F)CC1` (centres unmarked) [I-504], for which the LogP was 1.99^[a].
With `N#Cc1cncn1CC(O)(C#CCC(Cl)CCl)C1(F)CC1` (centres unmarked) [I-604], the LogP was 2.08^[a].
On the same count and under the same terms, next, `OC(Cn1cncc1Cl)c1ccc(Oc2cccnc2)cc1Cl` (centres unmarked) [I-78]: 1.13^[a].
Still for that read-out and setting: next, `N#Cc1cncn1CC(O)(c1ccc(Cl)cc1F)C1CC1` (centres unmarked) [I-413]: 2.50^[a].
For `CC(C)C(O)(Cn1cncc1C#N)c1ccc(Cl)cc1` (centres unmarked) [I-288], the LogP was 2.31^[a].
Still for that read-out and setting: next, `CCCCC(O)(Cn1cncc1C#N)c1ccc(OC(F)(F)F)cc1` (centres unmarked) [I-265]: 3.25^[a]; `N#Cc1cncn1CC(O)(c1cc(Br)ccc1Cl)C1(F)CC1` (centres unmarked) [I-633]: 2.45^[a].
On the same count and under the same terms, next, `CC(C)C(O)(Cn1cncc1C#N)c1ccc(F)cc1F` (centres unmarked) [I-419]: 2.35^[a]; `N#Cc1cncn1CC(O)(c1cc(Cl)ccc1Cl)C1(Cl)CC1` (centres unmarked) [I-336]: 2.56^[a].
Consider `CCOC(Cn1cncc1C(N)=O)c1ccc(Oc2ccc(Cl)cc2)cc1C(F)(F)F` (centres unmarked) [I-83], for which the LogP was 2.54^[a].
Consider `N#Cc1cncn1CC(O)(c1cc(F)c(F)cc1Cl)C1(F)CC1` (centres unmarked) [I-579], for which the LogP is 2.32^[a].
Still for that read-out and setting: for `C[Si](C)(C)CC(O)(Cn1cncc1C#N)c1ccccc1F` (centres unmarked) [I-271] the value was 3.17^[a]; for `N#Cc1cncn1CC(O)(c1c(F)cccc1Cl)C1(Cl)CC1` (centres unmarked) [I-339], 2.32^[a]; for `N#Cc1cncn1CC(O)(c1ccc(C(F)(F)F)cc1Cl)C1(Cl)CC1` (centres unmarked) [I-264], 2.80^[a].
As for `CC(O)(Cn1cncc1F)c1ccc(Oc2ccc(C(F)F)cc2)nc1C(F)(F)F` (centres unmarked) [I-295], the LogP is 2.15^[a].
On the same count and under the same terms, for `N#Cc1cncn1CC(O)(c1ccc(F)nc1F)C1(F)CC1` (centres unmarked) [I-551] the value was 1.79^[a].
The same measure, in the same setting: for `N#Cc1cncn1CC(O)(C#CCC1CCCCC1)C1CC1` (centres unmarked) [I-591] the value was 3.02^[a]; for `C=C(C)CC(O)(Cn1cncc1C#N)C1(Cl)CC1` (centres unmarked) [I-675], 2.35^[a]; for `CC(C)(C)C(O)(Cn1cncc1C#N)c1cc(Cl)cc(Cl)c1` (centres unmarked) [I-463], 3.22^[a].
Same read-out and setting: for `CC(O)(Cn1cncc1Cl)c1ccc(Oc2ccc(C(F)(F)F)cc2)c(Br)c1` (centres unmarked) [I-160] the value was 2.78^[a]; for `COC(=O)COC(Cn1cncc1C#N)c1ccc(Oc2ccc(Br)cc2)cc1C(F)(F)F` (centres unmarked) [I-94], 3.99^[a]; for `N#Cc1cncn1CC(O)(c1ccc(F)cc1C(F)(F)F)C1(F)CC1` (centres unmarked) [I-382], 2.46^[a].
With `CCOC(Cn1cncc1C#N)c1ccc(Oc2ccc(Cl)cc2)cc1Br` (centres unmarked) [I-62], the LogP is 4.51^[a].
Same read-out and setting: for `CC(C)(C)CC(O)(Cn1cncc1C#N)c1ccccc1Cl` (centres unmarked) [I-309] the value was 3.17^[a].
Turning to `CC(C)(C)CC(O)(Cn1cncc1C#N)c1ccc(Cl)cc1` (centres unmarked) [I-223], the LogP was 3.11^[a].
Still for that read-out and setting: next, `N#Cc1cncn1CC(O)c1cnc(Oc2ccc(OC(F)(F)F)cc2)cc1C(F)(F)F` (centres unmarked) [I-125]: 3.35^[a].
Same read-out and setting: for `OC(Cn1cncc1Cl)c1ccc(Oc2ccc(C(F)(F)F)cc2)cc1` (centres unmarked) [I-13] the value was 2.37^[a]; for `CC(C)CC#CC(O)(Cn1cncc1C#N)C1(F)CC1` (centres unmarked) [I-540], 2.25^[a]; for `OC(Cn1cncc1Cl)c1ccc(Oc2ccc(C(F)(F)F)cc2)c(Br)c1` (centres unmarked) [I-12], 2.75^[a].
Still for that read-out and setting: next, `OC(Cn1cncc1Cl)c1ccc(Oc2ccc(Cl)cc2)nc1C(F)(F)F` (centres unmarked) [I-34]: 2.51^[a]; `N#Cc1cncn1CC(O)(CCC1CCCC1)C1(Cl)CC1` (centres unmarked) [I-596]: 3.37^[a].
Take `COC(C)(Cn1cncc1Br)c1ccc(Oc2ccc(Cl)cc2)cc1C(F)(F)F` (centres unmarked) [I-201]: the LogP was 3.76^[a].
As for `C=CCC(O)(Cn1cncc1C#N)C1(F)CC1` (centres unmarked) [I-664], the LogP was 1.56^[a].
Same read-out and setting: for `CC(C)(C)C(O)(Cn1cncc1C#N)c1ccc(F)c(Br)c1` (centres unmarked) [I-509] the value was 2.97^[a].
Take `C[Si](C)(C)C=CC(O)(Cn1cncc1C#N)C1(F)CC1` (centres unmarked) [I-679]: the LogP is 2.77^[a].
Still for that read-out and setting: for `COc1ccc(C(O)(Cn2cncc2C#N)CC(C)(C)C)c(Cl)c1` (centres unmarked) [I-367] the value was 3.21^[a]; for `OC(Cn1cncc1F)c1ccc(Oc2ccc(S(F)(F)(F)(F)F)cc2)nc1C(F)(F)F` (centres unmarked) [I-147], 2.59^[a]; for `CCCC(O)(Cn1cncc1C#N)c1ccc(Cl)cc1` (centres unmarked) [I-289], 2.39^[a].
Regarding `N#Cc1cncn1CC(O)c1cnc(Oc2ccc(Cl)nc2)cc1C(F)(F)F` (centres unmarked) [I-152], the LogP is 2.32^[a].
Still for that read-out and setting: for `N#Cc1cncn1CC(O)(C#CCC1CCCCC1)C1CCC1` (centres unmarked) [I-592] the value was 3.51^[a]; for `N#Cc1cncn1CC(O)c1cnc(Oc2ccc(C(F)(F)F)cc2)cc1C(F)(F)F` (centres unmarked) [I-111], 3.15^[a]; for `CC(C)(C)CC(O)(Cn1cncc1C#N)c1ccc(Cl)cc1F` (centres unmarked) [I-260], 3.44^[a].
Still for that read-out and setting: for `OC(Cn1cncc1F)c1cnc(Oc2ccc(C(F)(F)F)cc2)cc1Cl` (centres unmarked) [I-126] the value was 2.27^[a].

The same data set, now with this note: reversed phase HPLC column; method [a], HPLC on reversed phase columns.
As a reminder, the chromatographic logP is a lipophilicity value derived from retention on a column. A higher chromatographic logP goes with higher lipophilicity. In turn, `N#Cc1cncn1CC(O)(C=CC1CCCCC1)C1(Cl)CC1` (centres unmarked) [I-663, 1-[2-(1-chlorocyclopropyl)-4-cyclohexyl-2-hydroxybut-3-en-1-yl]-1H-imidazole-5-carbonitrile] showed a chromatographic logP of 3.48.

Staying with this data set, now noted: reversed phase HPLC column; method [a]: LC-UV, acidic range, 0.1% formic acid in water and acetonitrile as eluent (linear gradient from 10% to 95% acetonitrile).
`N#Cc1cncn1CC(=O)c1ccc(F)cc1F` [IX-87] had a chromatographic logP of 1.75.
